Source: patent publication US12708671B2, “Nanometric pharmaceutical composition in the form of liposomes or nanoemulsion containing specific sequences of interference RNA” (UNIVERSIDADE FEDERAL DO RIO GRANDE DO SUL, priority 2019, dated 2026)

Experiments:
[1] = target: T1, ecto-5′-nucleotidase/CD73 (Rattus norvegicus, UniProt P21588); assay: ecto-5′-nucleotidase/CD73 enzymatic activity (AMP hydrolysis, malachite green) in C6 glioma; assay type: cell-based, Rattus norvergicus; details: for reduction of AMP hydrolysis: C6 glioma; for reduction of AMPase activity: C6 glioma cells silenced with NE/siRNA-CD73 complexes
T1 construct: endogenous in cells; host or cells: C6 glioma cells (rat)
T1 sequence (P21588 29-551): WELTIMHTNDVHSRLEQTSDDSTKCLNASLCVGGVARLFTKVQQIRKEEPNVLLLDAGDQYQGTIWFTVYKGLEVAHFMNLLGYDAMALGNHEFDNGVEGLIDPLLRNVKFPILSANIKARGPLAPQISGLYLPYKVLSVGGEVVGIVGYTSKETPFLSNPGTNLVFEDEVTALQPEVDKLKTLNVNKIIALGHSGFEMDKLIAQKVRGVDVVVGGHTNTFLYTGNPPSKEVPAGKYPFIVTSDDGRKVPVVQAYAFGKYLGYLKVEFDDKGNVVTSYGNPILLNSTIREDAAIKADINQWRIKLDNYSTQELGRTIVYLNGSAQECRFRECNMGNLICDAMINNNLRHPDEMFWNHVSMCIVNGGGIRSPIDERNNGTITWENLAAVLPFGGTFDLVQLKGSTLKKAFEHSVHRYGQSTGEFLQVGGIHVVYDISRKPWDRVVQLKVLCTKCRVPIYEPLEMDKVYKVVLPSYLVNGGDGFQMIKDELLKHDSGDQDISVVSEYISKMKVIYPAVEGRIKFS
Description: (§1) After treatment with AMPCP, the medium was removed, the cells were washed with PBS buffer solution (phosphate buffered saline, solution containing NaCl and NaHPO4), trypsinized with 200 μL of 0.25% trypsin solution and counted in a newbauer chamber. Once the cells were treated, enzyme activity, cell viability and immunocytochemistry assays were performed for CD73, in order to determine the reliability of the tests with the NE/siRNA or Lipofectamine®/siRNA complexes. The enzymatic activity of C6 cells was determined in an incubation medium (2 mM MgCl2, 120 mM NaCl, 5 mM KCl, 10 mM glucose, 20 mM HEPES [pH 7.4], and 2 mM AMP [adenosine monophosphate]) at 37° C. for 10 min, where the inorganic phosphate released by the action of CD73 was measured and the protein concentration was evaluated by the methods of malachite green and Coomassie Blue, respectively. Specific activity was expressed as μmol Pi released/min/mg protein.
Thus, it was evaluated how much the selective ecto-5′nucleotidase/CD73 inhibitor, AMPCP, could affect the proliferation of C6 glioma cells. The cells were exposed to increasing concentrations of AMPCP (1, 10 and 100 μM) and after 48 h cell proliferation was determined by counting in a newbauer chamber. In parallel, the activity of the enzyme ecto-5′nucleotidase/CD73 was analyzed by measuring the hydrolysis of AMP to adenosine (ADO) using the malachite green method.
For this purpose, specific siRNA-CD73 sequences were developed (siRNA-CD73-961 and siRNA-CD73-980; Table 1) and their functionality/specificity was assessed by transfecting C6 cells using Lipofectamine® according to the manufacturer's instructions. After 48 h of transfection, CD73 expression and enzymatic activity were evaluated by immunocytochemistry and AMP hydrolysis, respectively.
After the physical-chemical characterization and the optimization of the transfection, the effectiveness of the NE/siRNA-CD73-961 and NE/siRNA-CD73-980 complexes in silencing CD73 in C6 glioma was analyzed through immunocytochemical and AMP hydrolysis experiments.

C6 glioma cells = assay: C6 glioma cell proliferation by counting in newbauer chamber; assay type: cell-based, rat; details: 100 μM, 48 h, compared to the control
Description: Primary astrocyte cultures were prepared from scratch. The cortex of newborn Wistar rats (1-2 days old) were removed and mechanically dissociated in a balanced saline solution free of Ca^+2 and Mg^+2 (pH 7.4), containing 137 mM NaCl, 5, 36 mM KCl, 0.27 mM Na2HPO4, 1.1 mM KH2PO4, and 6.1 mM glucose. After centrifugation at 1000 g for 5 min, the pellet was resuspended in culture medium (pH 7.6) containing […], 8.39 mM of HEPES buffer (4-(2-hydroxyethyl)-1-acid piperazine ethanesulfonic) (pH 7.6), 23.8 mM NaHCO3, 0.1% fungizone® (Amphotericin B, antifungal), 0.032% antibiotic garamycin and 10% FBS. […]
as §1, with “Once the cells were treated, enzyme activity, cell viability and immunocytochemistry assays were performed for CD73, in order to determine the reliability of the tests with the NE/siRNA or Lipofectamine®/siRNA complexes.” left out, “protein. […]” for “protein.”

U87MG glioma cells [2] = assay: U87MG cell viability with temozolomide after CD73 silencing; assay type: cell-based; details: Homo sapiens, U-87 MG, U87MG previously silenced for CD73 with siRNA-CD73-441, read-out: reduction of cell viability
Description: The participation of CD73 in chemoresistance was also investigated (FIG. 13). U87MG glioma cells were treated with temozolomide (100 μM) alone or in combination with siRNA-CD73-441. Temozolomide reduced cell viability by an average of 20% in glioma previously silenced for CD73.

U87MG glioma cells [3] = assay: U87MG migration assay; assay type: cell-based, human
U87MG glioma cells [4] = assay: U87MG cell proliferation by counting in Neubauer chamber; assay type: cell-based, human
Description: To assess the impact of CD73 silencing on U87MG glioma cell proliferation in culture, cells were silenced using the siRNA-CD73-441 sequence and counted using a Neubauer chamber.

CD73 [5] = assay: CD73 protein expression in U87MG after silencing; assay type: cell-based, human
Description: (§2) The siRNA-CD73-441 sequence to silence human CD73 was evaluated for its efficiency.

CD73 [6] = assay: CD73 enzymatic activity in U87MG after silencing; assay type: cell-based, human
Description: as §2

Compound: Nc1ncnc2c1ncn2[C@@H]1O[C@H](COP(=O)(O)CP(=O)(O)O)[C@@H](O)[C@H]1O [AMPCP, adenosine 5′-(α, βmethylene) -diphosphate]
- reduction of AMP hydrolysis ([1]; 10 μM): 40%
- reduction of AMP hydrolysis ([1]; 100 μM): 50%
- decrease in cell proliferation (C6 glioma cells): 30%

Compound: Cn1nnc2c(C(N)=O)ncn2c1=O [Temozolomide, temozolomide]
- cytotoxicity at 100 µM (U87MG glioma cells [2]): 20%

Compound: Nc1ncnc2c1ncn2[C@@H]1O[C@H](CO)[C@@H](O)[C@H]1O [adenosine]
- migration of U87MG glioma cells (U87MG glioma cells [3]; 24 hours of analysis): induced a sustained migration
- migratory potential of CD73-silenced glioblastoma cells (U87MG glioma cells [3]; adenosine treatment of cells silenced with siRNA-CD73-441): promoted recovery of the migratory potential
- proliferation of CD73-silenced U87MG cells (U87MG glioma cells [4]; ADO treatment of cells silenced with siRNA-CD73-441): restored proliferation

Compound: siRNA-CD73-441: siRNA sequence to silence human CD73, SEQ ID No: 3, Table 1 (GGGGCCACUAGCAUCUCAAAUUUGAGAUGCUAGUGGCCCCUU; listed as RNA, chemistry not given here)
- glioma cell migration (U87MG glioma cells [3]; U87MG, CD73 silencing): impaired glioma cell migration
- CD73 protein expression (CD73 [5]): efficient in decreasing
- inhibition of U87MG cell proliferation (U87MG glioma cells [4]; CD73 silencing): ~ 40%
- decrease of CD73 enzymatic activity (CD73 [6]): ~ 90%

Compound: siRNA-CD73-961: interference RNA sequence for CD73 (gene ID: 58813, Rattus norvergicus), SEQ ID No: 1, Table 1 (GCCAUCAAAGCAGACAUUAACUAAUGUCUGCUUUGAUGGCUG; listed as RNA, chemistry not given here)
- reduction of AMPase activity [1]: 70%

Compound: siRNA-CD73-980: interference RNA sequence for CD73 (gene ID: 58813, Rattus norvergicus), SEQ ID No: 2, Table 1 (ACCAGUGGAGGAUAAAAUUAGAAUUUUAUCCUCCACUGGUUA; listed as RNA, chemistry not given here)
- reduction of AMPase activity [1]: 63%
